Read-outs that look alike come from different tables or passages of the source. Blank lines part the entries; values can stand above or below the compound they belong to. Numbered stars: 1 amine (or outer) side, 2 acyl side, 3 side chain; on linkers, the order of the positions; unused ones are H or OH. Square brackets hold non-standard residues; d marks the D form. Peptide text beside a SMILES is read from it. * marks the point of attachment. DOTA = O=C(O)CN1CCN(CC(=O)O)CCN(CC(=O)*)CCN(CC(=O)O)CC1; X1 = O=C(Cn1cc([C@H](Cc2ccc(O)cc2)N[*:1])nn1)[*:2]; Nle = CCCC[C@H](N)C(=O)O
Legend:
Blood plasma stability = format: in vitro ADME, human
Experimental: Stock solutions were prepared by dissolving the reference substances (Nle^15]-MG11 and PP-F11-N) or the triazolominigastrins (1 mg, 750 nmol) in ammonium acetate buffer (50 µL, 0.5 M, pH 5.5) and addition of water to a final peptide concentration of 250 µM (approx. 0.3 mg/mL). For in vitro experiments, DOTA-functionalized compounds (1 nmol, 4 µL of 250 µM stock solution) were added to a mixture of aq. HCl (22.5 µL, 0.05 M, pH 1.3), ammonium acetate buffer (10 µL, 0.5 M, pH 5.5) and aq. sodium ascorbate (5 µL, 0.5 M). 20-25 MBq of [^177Lu]LuCl3 (ca. 2.5 µL, in 0.04 M HCl, 20-25 MBq/nmol) were added and the mixtures were heated to 95 °C for 20 min in a heating block. After labeling, a 1 µL aliquot of the labeling mixture was added to aq. DTPA (200 µL, 25 µM) for quality control by γ-HPLC.
The ^177Lu-labeled compounds were diluted with 0.9% NaCl to a concentration of 3.75 µM and incubated (375 pmol, 100 µL, 7.5-12 MBq) in human blood plasma (1.5 mL) at 37 °C. At different time points (0.5, 1, 2, 4, 6 and 24 h) aliquots (75 µL) were taken and the proteins were precipitated in CH3CN (100 µL) and centrifuged (2 min, 14680 rpm, rt). The supernatant (75 µL) was diluted with water (75 µL) and analyzed by γ-HPLC. One phase decay nonlinear regression (A = A0 ^∗ e^-kt) was used to calculate the half-lifes (t1/2) of the peptide conjugates with GraphPad Prism (n=2-3).

CCK2R-positive tumors = settings: cited from earlier work
A431-CCK2R cells = assay: Cell internalization experiments with 177Lu-labeled conjugates; format: cell-based, Human
Experimental: Stock solutions were prepared by dissolving the reference substances (Nle^15]-MG11 and PP-[…]) or the triazolominigastrins (1 mg, 750 nmol) in ammonium acetate buffer (50 μL, 0.5 M, pH 5.5) and addition of water to a final peptide concentration of 250 μM (approx. 0.3 mg/mL). For in vitro experiments, DOTA-functionalized compounds (1 nmol, 4 μL of 250 μM stock solution) were added to a mixture of aq. HCl (22.5 μL, 0.05 M, pH 1.3), ammonium acetate buffer (10 μL, 0.5 M, pH 5.5) and aq. sodium ascorbate (5 μL, 0.5 M). 20-25 MBq of [^177Lu]LuCl3 (ca. 2.5 μL, in 0.04 M HCl, 20-25 MBq/nmol) were added and the mixtures were heated to 95 °C for 20 min in a heating block. After labeling, a 1 μL aliquot of the labeling mixture was added to aq. DTPA (200 μL, 25 μM) for quality control by γ-HPLC. Human epidermoid carcinoma cells A431 stably transfected to express the CCK2R (A431-CCK2R cells)[Aloj L., Journal of Nuclear Medicine, 2004, 45, 485-494] were grown in monolayers in NunclonTM Delta treated cell culture flasks in humidified air at 5% CO2 and 37 °C. The cells were maintained in the culture medium DMEM (high glucose (4.5 g/L)) supplemented with 20 mM L-Gln and 10% FCS. The culture was passaged regularly at 80 to 90% confluency using a 0.25% trypsin 0.38‰ EDTA solution. Assays were conducted in the assay medium DMEM (high glucose) containing 0.1% BSA. On the day prior to the experiment A431-CCK2R cells were placed in six-well plates (0.85·10^6 cells/well) in cell culture medium and incubated overnight for attachment. On the day of the experiment, the medium was removed and the cells were washed twice with 1 mL PBS. The plates were put on ice for preparation. 0.9 mL of assay medium was dispensed to all wells except the ones for nonspecific binding. 0.2 pmol of ^177Lu-labeled conjugates (100 μL, 2 nM in assay medium, ca. 4.2 kBq) were dispensed to all wells. For the determination of nonspecific binding, a 5000-fold excess of […] (1 nmol, 100 μL, 10 μM in assay medium) was added to 0.8 mL of assay medium containing the ^177Lu-labeled conjugates. The plates were incubated at 37 °C in 5% CO2 to allow binding and internalization. The process was stopped after 30, 60, 120, and 240 min by collection of the supernatant. The cells were washed twice with PBS (each 0.6 mL). The combined supernatants represent the free, unbound fraction of radioactivity. Membrane-bound activity was determined by incubating the cells with cold saline glycine buffer (0.6 mL, 0.05 M, pH 2.8) twice for 5 min at rt. The internalized fraction was isolated by two cycles of cell lysis with NaOH (each 0.6 mL, 1 M, 10 min, rt). The radioactivity of the fractions was measured by a COBRA-II gamma counter and is represented as percentage of total applied radioactivity dosage (n=3-5 in triplicates).

[1] = compared with PP-F11N, Figure 1
[2] = compared with [Nle^15]MG11, Figure 1

Compound: CCCC[C@H](NC(=O)[C@H](Cc1c[nH]c2ccccc12)NC(=O)Cn1cc([C@H](Cc2ccc(O)cc2)NC(=O)[C@H](C)NC(=O)[C@@H](CCC(=O)O)NC(=O)[C@@H](CCC(=O)O)NC(=O)[C@@H](CCC(=O)O)NC(=O)[C@@H](CCC(=O)O)NC(=O)[C@@H](CCC(=O)O)NC(=O)[C@@H](CCC(=O)O)NC(=O)CN2CCN(CC(=O)O)CCN(CC(=O)O)CCN(CC(=O)O)CC2)nn1)C(=O)N[C@@H](CC(=O)O)C(=O)N[C@@H](Cc1ccccc1)C(N)=O [NMG 6, DOTA-(DGlu)5-DGlu-Ala-Tyr-Ψ[Tz]-Gly-Trp-Nle-Asp-Phe-NH2]
stability in plasma over 24 hours (Blood plasma stability): high stability

Compound: CCCC[C@H](NC(=O)[C@H](Cc1c[nH]c2ccccc12)NC(=O)CNC(=O)[C@H](Cc1ccc(O)cc1)NC(=O)[C@H](C)NC(=O)[C@@H](CCC(=O)O)NC(=O)[C@@H](CCC(=O)O)NC(=O)[C@@H](CCC(=O)O)NC(=O)[C@@H](CCC(=O)O)NC(=O)[C@@H](CCC(=O)O)NC(=O)[C@@H](CCC(=O)O)NC(=O)CN1CCN(CC(=O)O)CCN(CC(=O)O)CCN(CC(=O)O)CC1)C(=O)N[C@@H](CC(=O)O)C(=O)N[C@@H](Cc1ccccc1)C(N)=O [PP-F11N, reference compound]
stability in plasma over 24 hours (Blood plasma stability; 177Lu-labeled, human blood plasma, 37 °C, over 24 hours, Figure 3): high stability
tumor-to-kidney ratio (CCK2R-positive tumors; according to WO 2015/067473 A1): excellent

Compound: CCCC[C@H](NC(=O)[C@H](Cc1c[nH]c2ccccc12)NC(=O)Cn1cc([C@H](Cc2ccc(O)cc2)NC(=O)[C@H](C)NC(=O)[C@@H](CCC(=O)O)NC(=O)CN2CCN(CC(=O)O)CCN(CC(=O)O)CCN(CC(=O)O)CC2)nn1)C(=O)N[C@@H](CC(=O)O)C(=O)N[C@@H](Cc1ccccc1)C(N)=O [TZMG 6, DOTA-DGlu-Ala-Tyr-Ψ[Tz]-Gly-Trp-Nle-Asp-Phe-NH2] ({DOTA}-[dE]A[X1]W[Nle]DF-NH2)
stability in plasma (Blood plasma stability): reduced stability

Compound: CCCC[C@H](NC(=O)[C@H](Cc1c[nH]c2ccccc12)NC(=O)Cn1cc([C@H](Cc2ccc(O)cc2)n2cc([C@H](C)n3cc([C@@H](CCC(=O)O)NC(=O)CN4CCN(CC(=O)O)CCN(CC(=O)O)CCN(CC(=O)O)CC4)nn3)nn2)nn1)C(=O)N[C@@H](CC(=O)O)C(=O)N[C@@H](Cc1ccccc1)C(N)=O [TZMG 876, DOTA-DGlu-Ψ[Tz]-Ala-Ψ[Tz]-Tyr-Ψ[Tz]-Gly-Trp-Nle-Asp-Phe-NH2]
stability in plasma (Blood plasma stability): significantly higher stability

Compound: DOTA-DGlu-DGlu-DGlu-DGlu-DGlu-DGlu-Ala-Tyr-Gly-Trp-Met-Asp-Phe-NH2 [PP-F11]
accumulation in the tumor (CCK2R-positive tumors; [^177Lu]Lu-PP-F11): high favorable accumulation
accumulation in the kidneys (CCK2R-positive tumors; in vivo): low accumulation

More lines, main results first:

stability in plasma over 24 hours (Blood plasma stability): high stability
Compound: DOTA-(DGlu)5-DGlu-Ψ[Tz]-Ala-Tyr-Ψ[Tz]-Gly-Trp-Nle-Asp-Phe-NH2 [NMG 86]
cell internalization after 4 h (A431-CCK2R cells; [1]): higher
cell internalization kinetics (A431-CCK2R cells; [1]): faster

stability in plasma (Blood plasma stability): significantly higher stability
Compound: DOTA-DGlu-Ψ[Tz]-Ala-Tyr-Ψ[Tz]-Gly-Trp-Nle-Asp-Phe-NH2 [TZMG 86]
cell internalization after 4 h (A431-CCK2R cells; [2]): higher
cell internalization kinetics (A431-CCK2R cells; [2]): faster

From EP3868394A1, “MONO- AND MULTI-TRIAZOLOMINIGASTRINS FOR TARGETING OF CCK2R-POSITIVE NEOPLASMS” (PAUL SCHERRER INSTITUT, priority 2020, dated 2021)
